Measured values from US20050037926A1, “Pesticide preparations containing copolymers” (priority 2001, published 2005).

Columns and labels:
Assay type in all cases: in vivo
Details in all cases: 600 g copolymer where named, 300 l/ha, 21 days at 20° C.
[1] = system: Abutilon theophrasti (ABUTH); assay: Greenhouse herbicidal action of glyphosate test formulations
Experimental: (§1) Test formulations were prepared with in each case 200 g, 300 g and 500 g of glyphosate and in each case 600 g of the copolymers I to V in 300 l of water. The data by weight refer to 100% active ingredient and 100% adjuvant. An amount of the formulation corresponding to the ratio 300 l/ha was applied in a greenhouse to the plant species Abutilon theophrasti (ABUTH), Sesbania exaltata (SEBEX), Pharbitis purpurea (PHBPU), Galium aparine (GALAP), Amaranthus retroflexus (AMARE) and Echinochloa crus-galli (ECHCG), and, after 21 days at 20° C., the plant growth was assessed according to a % scale.
(§2) 0% means no effect and 100% means complete destruction of the types of plant.

[2] = system: Amaranthus retroflexus (AMARE); assay: as above
Experimental: as §1, §2

[3] = system: Echinochloa crus-galli (ECHCG); assay: as above
Experimental: as §1, §2

Galium aparine (GALAP) = assay: as above
Experimental: as §1, §2

[4] = system: Pharbitis purpurea (PHBPU); assay: as above
Experimental: as §1, §2

[5] = system: Sesbania exaltata (SEBEX); assay: as above
Experimental: as §1, §2

[6] = system: SEBEX, AMARE, GALAP, ABUTH, ECHCG, PHBPU; assay: Greenhouse herbicidal action, total over the six plant species
Experimental: as §1, §2

## O=C(O)CNCP(=O)(O)O [Glyphosate, N-phosphonomethylglycine]
[1]; glyphosate 200 g/ha
  herbicidal action ABUTH (plant growth assessed on % scale): 0%
[1]; glyphosate 300 g/ha
  herbicidal action ABUTH (plant growth assessed on % scale): 10%
[1]; glyphosate 500 g/ha
  herbicidal action ABUTH (plant growth assessed on % scale): 15%
[2]; glyphosate 200 g/ha
  herbicidal action AMARE (plant growth assessed on % scale): 20%
[2]; glyphosate 300 g/ha
  herbicidal action AMARE (plant growth assessed on % scale): 45%
[2]; glyphosate 500 g/ha
  herbicidal action AMARE (plant growth assessed on % scale): 65%
[3]; glyphosate 200 g/ha
  herbicidal action ECHCG (plant growth assessed on % scale): 15%
[3]; glyphosate 300 g/ha
  herbicidal action ECHCG (plant growth assessed on % scale): 20%
[3]; glyphosate 500 g/ha
  herbicidal action ECHCG (plant growth assessed on % scale): 40%
Galium aparine (GALAP); glyphosate 200 g/ha
  herbicidal action GALAP (plant growth assessed on % scale): 5%
Galium aparine (GALAP); glyphosate 300 g/ha
  herbicidal action GALAP (plant growth assessed on % scale): 20%
Galium aparine (GALAP); glyphosate 500 g/ha
  herbicidal action GALAP (plant growth assessed on % scale): 40%
[4]; glyphosate 200 g/ha
  herbicidal action PHBPU (plant growth assessed on % scale): 10%
[4]; glyphosate 300 g/ha
  herbicidal action PHBPU (plant growth assessed on % scale): 20%
[4]; glyphosate 500 g/ha
  herbicidal action PHBPU (plant growth assessed on % scale): 40%
[5]; glyphosate 200 g/ha, 0% no effect, 100% complete destruction
  herbicidal action SEBEX (plant growth assessed on % scale): 10%
[5]; glyphosate 300 g/ha
  herbicidal action SEBEX (plant growth assessed on % scale): 15%
[5]; glyphosate 500 g/ha
  herbicidal action SEBEX (plant growth assessed on % scale): 30%
[6]; glyphosate 200 g/ha
  herbicidal action Total: 10%
[6]; glyphosate 300 g/ha
  herbicidal action Total: 22%
[6]; glyphosate 500 g/ha
  herbicidal action Total: 38%
